Values quoted from earlier work, collected in patent US20110052683A1, “PHARMACEUTICAL PREPARATION FOR TREATING CARDIOVASCULAR DISEASE” (priority 2008, published 2011).
One block for each molecule: values may come before it.

Tests used:
[1] = combined administration of atorvastatin with diltiazem
[2] = combined administration of lovastatin with diltiazem
[3] = combined administration of pravastatin with verapamil

SMILES: CC(C)c1c(C(=O)Nc2ccccc2)c(-c2ccccc2)c(-c2ccc(F)cc2)n1CC[C@@H](O)C[C@@H](O)CC(=O)O [atorvastatin]
- side effects of combined administration [1]: occurrence of rhabdomyolysis and acute hepatitis

- change in Cmax and AUC [2]: sudden increase in Cmax and AUC
SMILES: CC[C@H](C)C(=O)O[C@H]1C[C@@H](C)C=C2C=C[C@H](C)[C@H](CC[C@@H]3C[C@@H](O)CC(=O)O3)[C@H]21 [lovastatin]

- increase in AUC [3]: 31%
- increase in Cmax [3]: 42%
SMILES: CC[C@H](C)C(=O)O[C@H]1C[C@H](O)C=C2C=C[C@H](C)[C@H](CC[C@@H](O)C[C@@H](O)CC(=O)O)[C@H]21 [pravastatin]
